In patent US4797479A, “Nucleoside-phospholipid conjugate” (Toyo Jozo Kabushiki Kaisha, priority 1985, dated 1989):

Columns and labels:
P-388 leukemic cells = experiment: Antitumor activity against mouse P-388 leukemia (increase in life span, survivors); format: in vivo, mouse (BDF1 mice); conditions: for ILS at 30 mg/kg / ILS at 15 mg/kg: P388; for 35 days survivals No./treated / ILS (increase in life span): P-388; for ILS (increase in life span): Table 1, 35 days, control 7.57-7.79 days
mice = experiment: Acute toxicity / mortality in mice; format: in vivo; conditions: for mortality: 150 mg/kg body weight in mice
[1] = Antiviral activity (statement, no method given); conditions: statement in words; virus and dose not stated
[2] = tested on: Ehrlich ascites carcinoma cells; experiment: Antitumor activity against Ehrlich ascites carcinoma (increase in life span, survivors); format: in vivo, mouse (ICR mice); conditions: for 35 days survivals No./treated / ILS (increase in life span): Ehrlich; for ILS (increase in life span): Table 1, 35 days, control 15.14-15.43 days
Procedure: Antitumor activities against mouse leukemia P-388 carcinoma and Ehrlich ascites carcinoma are shown in the ensuing examples, according to the following list of specifications:
2. Animals: BDF1 mice or ICR mice, aged 5-6 weeks, male, 5 mice in a group and 7 control mice.
3. Tumor cells: P-388 leukemic cells; 1×10^6 /0.2 ml are inoculated intraperitoneally in BDF1 mice. Ehrlich ascites carcinoma cells; 2×10^6 /0.2 ml are inoculated intraperitoneally in ICR mice.
4. Preparation of samples and administration of drugs: Samples are suspended in Tris-HCl saline solution by sonication. 0.1 ml/10 g body weight is administered. Samples are stored at 4° C. in the dark.
Administration: starting two days after inoculation of tumor, once a day for 2-7 days.
5. Increase in life span (ILS) is calculated by the following equation: [formula] Experimental days: 35 days (partially 30 days) mice living in final days are not calculated in ILS.
Antitumor activity of this compound has been shown hereinbefore. Furthermore, over 60% ILS was observed when Ehrlich ascites carcinoma, 2×10^6 cells/0.2 ml was inoculated intraperitoneally in mice and 2 days thereafter this compound (30 mg/kg) was administered once a day for 7 days.

[3] = Mus musculus, Table 5, P-388 leukemia treatment, 30 mg (× 5) under head mg/kg

CCCCCCCCCCCCCCCCCC(=O)OC[C@H](COP(=O)(O)OC[C@H]1O[C@@H](n2cc(F)c(N)nc2=O)[C@@H](O)[C@@H]1O)OC(=O)CCCCCCCCCCCCCCCCC [Example 18]
ILS at 30 mg/kg (P-388 leukemic cells; [3]): 194%

CCCCCCCCCCCCCCCCCC(=O)OC[C@H](COP(=O)(O)OCC1=C[C@@H](n2cnc3c(N)ncnc32)[C@H](O)[C@@H]1O)OC(=O)CCCCCCCCCCCCCCCCC [Example 17]
ILS at 30 mg/kg (P-388 leukemic cells; [3]): 128%

CCCCC/C=C\C/C=C\CCCCCCCC(=O)OC[C@H](COP(=O)(O)OC[C@H]1O[C@@H](n2cc(F)c(=O)[nH]c2=O)[C@H](O)[C@@H]1O)OC(=O)CCCCCCC/C=C\C/C=C\CCCCC [Example 3]
ILS at 15 mg/kg (P-388 leukemic cells; mouse P-388 leukemia, 15 kg/mg, 5 times administration): 101% | 35 days survivals No./treated (P-388 leukemic cells; 15 mg/kg (× 5)): 0/5 | ILS (increase in life span) (P-388 leukemic cells; 15 mg/kg (× 5)): 100.8% | acute toxicity (mice; 75 mg/kg, mice): no acute toxicity

CCCCCCCCCCCCCCCC(=O)OC[C@H](COP(=O)(O)OC[C@H]1O[C@@H](n2cnc3c(N)ncnc32)[C@@H](O)[C@@H]1O)OC(=O)CCCCCCCCCCCCCCC [dipalmitoyl phosphatidyl arabinosyladenine]
mortality (mice): no mortality was observed | antiviral activity [1]: have antiviral activity

CCCCCCCCCCCCCCCC(=O)OC[C@H](COP(=O)(O)OCC1=C[C@@H](n2cnc3c(N)ncnc32)[C@H](O)[C@@H]1O)OC(=O)CCCCCCCCCCCCCCC [Example 2]
35 days survivals No./treated (P-388 leukemic cells; 50 mg/kg (× 3)): 1/5 | ILS (increase in life span) (P-388 leukemic cells; 50 mg/kg (× 3)): > 159.3% | 35 days survivals No./treated ([2]; 10 mg/kg (× 7)): 2/5 | ILS (increase in life span) ([2]; 10 mg/kg (× 7)): > 68.7% | acute toxicity (mice; 250 mg/kg body weight): No acute toxicity was observed

CCCCCCCCCCCCCCCC(=O)OC[C@H](COP(=O)(O)OC[C@H]1O[C@@H](n2cc(F)c(N)nc2=O)[C@@H](O)[C@@H]1O)OC(=O)CCCCCCCCCCCCCCC [Example 13]
ILS at 15 mg/kg (P-388 leukemic cells; Mus musculus, Table 2, P-388 leukemia, 15 mg/kg (× 5), control 7.57-7.64 days): 152% | ILS ([2]; Ehrlich ascites carcinoma 2×10^6 cells i.p., 30 mg/kg once a day for 7 days from 2 days after inoculation): over 60% | acute toxicity (mice; 150 mg/kg body weight, mice): No acute toxicity

CCCCCCCCCCCCCCCC(=O)OC[C@H](COP(=O)(O)OC[C@H]1O[C@@H](n2cc(F)c(=O)[nH]c2=O)[C@H](O)[C@@H]1O)OC(=O)CCCCCCCCCCCCCCC [Example 1]
35 days survivals No./treated (P-388 leukemic cells; 30 mg/kg (× 5)): 0/5 | ILS (increase in life span) (P-388 leukemic cells; 30 mg/kg (× 5)): 206.3% | 35 days survivals No./treated ([2]; 15 mg/kg (× 5)): 2/5 | ILS (increase in life span) ([2]; 15 mg/kg (× 5)): > 88.0% | acute toxicity (mice; 150 mg/kg i.p. in mice): No acute toxicity was observed

CCCCCCCCCCCCCCCC(=O)OC[C@H](COP(=O)(O)OC[C@H]1O[C@@H](n2cc(C)c(=O)[nH]c2=O)[C@@H](O)[C@@H]1O)OC(=O)CCCCCCCCCCCCCCC [dipalmitoyl phosphatidyl arabinosylthymine]
mortality (mice): no mortality was observed | antiviral activity [1]: have antiviral activity

CCCCCCCC/C=C\CCCCCCCC(=O)OC[C@H](COP(=O)(O)OC[C@H]1O[C@@H](n2ccc(N)nc2=O)[C@@H](O)[C@@H]1O)OC(=O)CCCCCCC/C=C\CCCCCCCC [Example 14]
ILS at 30 mg/kg (P-388 leukemic cells; Mus musculus, Table 2, P-388 leukemia, 30 mg/kg (× 5), control 7.57-7.64 days): 154% | ILS ([2]; mice Ehrlich ascites carcinoma, dose not stated): 65.6% | acute toxicity or mortality (mice; 150 mg/kg body weight, mice): No acute toxicity or mortality

CCCCCCCCCCCCCCCCCC(=O)OC[C@H](COP(=O)(O)OC[C@H]1O[C@@H](n2cc(F)c(=O)[nH]c2=O)C[C@@H]1O)OC(=O)CCCCCCCCCCCCCCCCC [Example 20]
ILS at 30 mg/kg (P-388 leukemic cells; [3]): 36%

CCCCCCCCCCCCCCCCCC(=O)OC[C@H](COP(=O)(O)OC[C@H]1O[C@@H](n2ccc(N)nc2=O)[C@@H](O)[C@@H]1O)OC(=O)CCCCCCCCCCCCCCCCC [Example 19]
ILS at 30 mg/kg (P-388 leukemic cells; [3]): 160%

CCCCCCCCCCCCCCCCCC(=O)OC[C@H](COP(=O)(O)OC[C@H]1O[C@@H](n2cc(F)c(=O)[nH]c2=O)[C@H](O)[C@@H]1O)OC(=O)CCCCCCCCCCCCCCCCC [Example 16]
ILS at 30 mg/kg (P-388 leukemic cells; [3]): 206%
